Details: 343.15 K, Liquid, Vibrating tube method

CCCCCC(=O)OCC(COC(=O)CCCCC)(COC(=O)CCCCC)COC(=O)CCCCC [pentaerythritol tetrahexanoate]
Details | mass density [kg/m3]
5696.7 kPa | 961.3
5737.4 kPa | 961.4
5771.4 kPa | 961.4
5805.5 kPa | 961.6
5839.7 kPa | 961.6
5880 kPa | 961.6
5913.7 kPa | 961.6
5948.1 kPa | 961.5
5988.1 kPa | 961.6
6021.6 kPa | 961.7
6055.8 kPa | 961.8
6095.9 kPa | 961.7
6130 kPa | 961.7
6163.7 kPa | 961.6
6303.4 kPa | 962.1
6343 kPa | 961.7
6375.6 kPa | 961.9
6408.1 kPa | 961.9
6440.4 kPa | 961.9
6478.6 kPa | 962.1
6509.9 kPa | 962
6541 kPa | 962.1
6572.6 kPa | 962.1
6608.9 kPa | 962.2
6752.3 kPa | 962.2
6777.5 kPa | 962.2
6802.4 kPa | 962.2
6831.3 kPa | 962.4
6854.2 kPa | 962.2
6882.2 kPa | 962.3
6906 kPa | 962.3
6930.2 kPa | 962.3
6953.5 kPa | 962.4
6977.2 kPa | 962.4
7001.2 kPa | 962.4
7029.7 kPa | 962.4
7054.1 kPa | 962.6
7078.2 kPa | 962.6
7102.1 kPa | 962.5
7130.7 kPa | 962.4
7154.9 kPa | 962.5
7179.4 kPa | 962.5
7208.3 kPa | 962.6
7233.7 kPa | 962.6
7260 kPa | 962.6
7284.4 kPa | 962.6
7309.2 kPa | 962.7
7338.6 kPa | 962.7
7363.8 kPa | 962.7
7388.9 kPa | 962.6
7418.5 kPa | 962.7
7443.8 kPa | 962.8
7469 kPa | 962.8
7499.3 kPa | 962.8
7524.9 kPa | 962.8
7767.9 kPa | 962.9
7799 kPa | 963
7825.1 kPa | 963.1
7851.3 kPa | 962.9
7877.7 kPa | 963.1
7909.5 kPa | 963.1
7936.7 kPa | 963
7963.5 kPa | 963.3
7989.9 kPa | 963.2
8021.4 kPa | 963.1
8047.9 kPa | 963.1
8074.4 kPa | 963.2
8105.7 kPa | 963.3
8131.9 kPa | 963.3
8158.1 kPa | 963.4
8189.5 kPa | 963.3
8215.6 kPa | 963.3
8242.5 kPa | 963.3
8269.2 kPa | 963.4
8301.8 kPa | 963.4
8328.6 kPa | 963.3
8355.6 kPa | 963.5
8382.4 kPa | 963.3
8415.2 kPa | 963.5
8442.4 kPa | 963.4
8469.3 kPa | 963.5
8502.3 kPa | 963.5
8646.3 kPa | 963.7
8736.5 kPa | 963.7
8764.6 kPa | 963.7
8798.5 kPa | 963.7
8827.2 kPa | 963.9
8855.8 kPa | 963.7
8890.1 kPa | 963.9
8919.1 kPa | 963.8
8953.7 kPa | 964
8982.7 kPa | 963.9
9012.2 kPa | 963.9
9047.3 kPa | 964
9077.3 kPa | 963.9
9107.5 kPa | 964
9137.5 kPa | 964
9173.3 kPa | 964
9362.4 kPa | 964.1
9399.5 kPa | 964.2
9430.7 kPa | 964.2
9462.9 kPa | 964.2
9496.5 kPa | 964.2
9527.5 kPa | 964.2
9565.2 kPa | 964.4
9800.6 kPa | 964.4
11008 kPa | 965.5
11050 kPa | 965.3
11087 kPa | 965.3
11123 kPa | 965.3
11159 kPa | 965.4
11202 kPa | 965.4
11238 kPa | 965.5
11274 kPa | 965.6
11701 kPa | 965.7
11736 kPa | 965.9
11778 kPa | 965.9
11813 kPa | 965.9
11848 kPa | 966
11889 kPa | 965.9
11924 kPa | 965.9
11958 kPa | 966
11998 kPa | 966.1
12031 kPa | 966.2
12159 kPa | 966.1
12190 kPa | 966.2
12236 kPa | 966.3
12264 kPa | 966.2
12287 kPa | 966.4
12310 kPa | 966.3
12337 kPa | 966.4
12361 kPa | 966.4
12383 kPa | 966.3
12808 kPa | 966.7
12827 kPa | 966.7
12842 kPa | 966.7
12857 kPa | 966.7
12873 kPa | 966.7
12892 kPa | 966.7
12909 kPa | 966.7
12927 kPa | 966.8
12989 kPa | 966.8
13011 kPa | 966.7
13039 kPa | 966.9
13064 kPa | 967
13093 kPa | 966.8
13131 kPa | 966.9
13169 kPa | 966.9
13207 kPa | 966.9
13245 kPa | 966.9
13290 kPa | 967
13328 kPa | 967.2
13373 kPa | 967
13409 kPa | 967.1
13559 kPa | 967.3
13566 kPa | 967.3
13908 kPa | 967.5
13933 kPa | 967.3
13985 kPa | 967.4
14253 kPa | 967.7
14284 kPa | 967.7
14335 kPa | 967.9
14361 kPa | 967.8
14387 kPa | 967.8
14418 kPa | 967.8
14469 kPa | 967.9
14756 kPa | 968.1
14783 kPa | 968.1
14816 kPa | 968.1
14843 kPa | 968.2
15289 kPa | 968.4
15317 kPa | 968.4
15350 kPa | 968.4
15379 kPa | 968.4
15408 kPa | 968.4
15436 kPa | 968.6
15470 kPa | 968.5
15498 kPa | 968.6
15525 kPa | 968.6
15558 kPa | 968.6
15584 kPa | 968.6
15615 kPa | 968.6
16026 kPa | 968.9
16081 kPa | 968.9
16112 kPa | 968.9
16138 kPa | 969
16163 kPa | 969
16189 kPa | 969.1
16220 kPa | 969
16246 kPa | 969.1
16272 kPa | 969
16303 kPa | 969
16328 kPa | 969.2
16525 kPa | 969.2
16552 kPa | 969.4
16584 kPa | 969.3
16611 kPa | 969.4
16638 kPa | 969.2
16666 kPa | 969.3
16699 kPa | 969.4
16726 kPa | 969.4
16754 kPa | 969.4
16782 kPa | 969.5
16815 kPa | 969.5
16844 kPa | 969.5
17457 kPa | 970
17484 kPa | 970
17516 kPa | 970
17543 kPa | 970
17571 kPa | 970
17599 kPa | 969.9
17632 kPa | 970
17686 kPa | 970
17714 kPa | 970.1
17747 kPa | 970.3
17775 kPa | 970.2
17808 kPa | 970.2
17836 kPa | 970
17864 kPa | 970.2
17898 kPa | 970.1
17926 kPa | 970.3
17954 kPa | 970.3
17983 kPa | 970.2
18017 kPa | 970.3
18046 kPa | 970.3
18080 kPa | 970.3
18109 kPa | 970.3
18137 kPa | 970.4
18165 kPa | 970.3
18200 kPa | 970.4
18228 kPa | 970.5
18261 kPa | 970.5
18289 kPa | 970.4
18316 kPa | 970.6
18346 kPa | 970.5
18370 kPa | 970.6
18394 kPa | 970.5
18418 kPa | 970.6
18446 kPa | 970.5
18471 kPa | 970.6
18495 kPa | 970.7
18524 kPa | 970.7
18656 kPa | 970.8
18681 kPa | 970.8
18706 kPa | 970.8
18732 kPa | 970.7
18761 kPa | 970.8
18787 kPa | 970.9
18812 kPa | 970.8
18842 kPa | 970.9
18867 kPa | 970.9
18923 kPa | 971
18949 kPa | 970.9
18975 kPa | 971.1
19008 kPa | 971
19034 kPa | 971
19060 kPa | 971.1
19085 kPa | 971
19632 kPa | 971.4
19654 kPa | 971.4
19677 kPa | 971.5
19700 kPa | 971.5
19726 kPa | 971.4
19747 kPa | 971.4
19768 kPa | 971.5
19790 kPa | 971.5
19809 kPa | 971.6
19830 kPa | 971.5
19850 kPa | 971.6
20110 kPa | 971.8
20121 kPa | 971.8
20124 kPa | 971.8
20125 kPa | 971.7
20126 kPa | 971.8
20127 kPa | 971.9
20128 kPa | 971.8
21458 kPa | 972.6
21485 kPa | 972.7
21513 kPa | 972.7
21545 kPa | 972.7
21573 kPa | 972.7
21600 kPa | 972.8
21630 kPa | 972.7
21654 kPa | 972.8
21678 kPa | 972.6
21708 kPa | 972.7
21835 kPa | 972.9
21865 kPa | 972.9
21890 kPa | 973
21915 kPa | 973

Reference: the NIST ThermoML archive (doi:10.1021/je060271a)
